Measurements from PMC4701221, “Novel Promising Estrogenic Receptor Modulators: Cytotoxic and Estrogenic Activity of Benzanilides and Dithiobenzanilides” (PLoS ONE, 2016).
“Also recorded” adds a separate entry of the source.

How the values were obtained:
MCF-7 cells [1] = assay: MTT assay, MCF-7; assay type: cell-based, human
Description: The cell lines used in the cytotoxicity study, besides MCF-12A, were purchased from European Collection of Cell Culture (ECACC, Salisbury, UK): HEK293 (human embryonic kidney, ATTC no. CRL-1573), A549 (Human lung carcinoma, ECACC no. 86012804), CCD39Lu (Human lung fibroblasts, ECACC no. 90110512), MCF-7 (Human breast adenocarcinoma, ECACC no. 86012803) and MDA-MB-231 (Human breast adenocarcinoma ECACC no. 92020424). Cell lines were cultured in DMEM medium without phenol red and supplemented with 10% (v/v) FBS, 1% penicillin-streptomycin and 1% L-glutamine. MCF-12A (ATTC no. […]) was purchased from American Type Culture Collection (ATCC Manassas, VA 20110 USA). MCF-12A cells were kept in 1:1 mixture of Dulbecco’s modified Eagle’s medium and Ham’s F12 medium, 20 ng/ml human epidermal growth factor, 100 ng/ml cholera toxin, 0.01 mg/ml bovine insulin, 500 ng/ml hydrocortisone and 5% horse serum. All cell lines were cultured at 37°C, in a humidified atmosphere containing 5% CO2.
Compounds were dissolved in DMSO to the final concentration of […]. A549, CCD39Lu, MCF-7, MDA-MB-231 and MCF-12A cells were seeded in 96 wells plates at density 2x10^4 cells/well and incubated overnight as described above. Subsequently, cells were treated with tested compounds at concentrations: 100 μM; 50 μM; 25μM; 12.5μM; 6 μM; 3 μM; 1.5 μM. […] Cells were incubated 72 h at 37°C in a humidified atmosphere containing 5% CO2 in the cell culture media appropriate for each cell line. Then, the medium was aspirated and 170 μl MTT solution (5mg/ml) was added to each well. Plates were incubated for 2 hours at 37°C, and then plates were centrifuged at 1200 rpm for 3 minutes. The formazan crystals were dissolved in 200 μl DMSO and plates were further agitated on a plate shaker at 300–500 rpm for 10 minutes. Absorbance at 570 nm (with reference wavelenght 650 nm) was measured using a plate reader (Biotek Instruments, Elx-800). Cell viability was calculated as a percentage relative to the control.

MDA-MB-231 cells [2] = assay: LDH release assay, MDA-MB-231; assay type: cell-based, human; settings: 72 h, Fig 2
Description: Cytotoxicity was evaluated by measuring the cell membrane permeability, using a LDH assay kit purchased from Cayman Chemical (Ann Arbor USA). The LDH assay was performed for MCF-7 and MDA-MB-231 cells (seeded at 2×10^4 density). As a positive control cell permeabilization with 1%Triton X-100 was used. The assay was performed 72h after start the incubation. Briefly, the plates were centrifuged at 400 ×g for 5 minutes, and 100 μL of supernatant were transferred from each well to the new 96-well plate and analyzed according to the manufacturer’s protocol. 100 μL of reaction mixture, containing lactic acid, NAD^+, tetrazolium salt and diaphorase, was added to each well. Plates were incubated on an orbital shaker for 30 minutes at room temperature and the absorbance at 490 nm was measured with a plate reader (Biotek Instruments, Elx-800). Results were expressed as a percentage of the total value of the positive control.

MCF-7 cells [3] = assay: Sulphorodamine B assay, MCF-7; assay type: cell-based, human; settings: 72 h, Fig 2
Description: (§1) In addition to the MTT assay, cell viability was measured by the Sulphorodamine B assay according to Vichai and Kirtikara. The MCF-7 and MDA-MB-23 cells were seeded and treated as for the MTT assay. After incubation the medium was removed and the cells were fixed with cold (4°C) trichloroacetic acid (final concentration 10%) for 1h. Than plates were washed 4 times with water and stained for 30 min, following by staining with sulforhodamine B (SRB) 0.4% in 1% acetic acid solution at room temperature for 20 min. After staining, the SRB solution was removed and the plates washed 5 times with 1% acetic acid dried. Bound SRB was solubilized with 200 μl 10 mM unbuffered Tris-base solution and plates were shaked for 10 min. The absorbance at 510 nm was measured using a plate reader (Biotek Instruments, Elx-800).

MDA-MB-231 cells [4] = assay: Sulphorodamine B assay, MDA-MB-231; assay type: cell-based, human; settings: 72 h, Fig 2
Description: as §1

human ERα receptor = molecular target: T1, human ERα receptor (Homo sapiens, UniProt P03372); assay: Estrogen Receptor luciferase assay in HEK293 cells transfected with ERα; assay type: cell-based; settings: HEK293 transfected with ERα and luciferase reporter, compared with estradiol, Fig 3A/3B
T1 construct: host or cells: HEK293
T1 sequence (P03372 1-595): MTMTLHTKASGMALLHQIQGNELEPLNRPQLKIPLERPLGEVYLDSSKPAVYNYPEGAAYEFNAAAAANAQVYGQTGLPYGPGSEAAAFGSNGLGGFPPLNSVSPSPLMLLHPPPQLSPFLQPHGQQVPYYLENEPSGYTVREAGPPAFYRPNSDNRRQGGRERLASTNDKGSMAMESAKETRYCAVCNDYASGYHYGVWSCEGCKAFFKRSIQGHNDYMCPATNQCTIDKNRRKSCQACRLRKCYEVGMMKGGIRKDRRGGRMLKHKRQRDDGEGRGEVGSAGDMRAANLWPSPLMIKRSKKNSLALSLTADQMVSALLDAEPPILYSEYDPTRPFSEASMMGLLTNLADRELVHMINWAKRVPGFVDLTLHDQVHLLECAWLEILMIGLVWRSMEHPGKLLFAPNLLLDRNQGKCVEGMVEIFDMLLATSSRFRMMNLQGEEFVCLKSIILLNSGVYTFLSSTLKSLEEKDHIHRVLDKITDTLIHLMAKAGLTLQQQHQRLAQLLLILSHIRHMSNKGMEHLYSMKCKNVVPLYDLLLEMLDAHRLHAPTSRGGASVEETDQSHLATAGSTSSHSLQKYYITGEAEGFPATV
Text: To obtain a eukaryotic vector expressing only the ER-α nuclear receptor, a construct was designed by cloning a KpnI-BamHI fragment from plasmid pEGFP-C1-ERα containing the ERα coding sequence that includes a stop signal into the pEGFP-N3 plasmid (Clontech Laboratories, Palo Alto, CA) under the control of the CMV promoter. This construction was termed pEGFP-N-ERα, and although it encoded both human ERα receptor and GFP protein, only the former is expressed. For mock transfections, pEGFP-N3 plasmid was digested with BglII and NotI and religated after polishing DNA ends to remove GFP coding sequence. Plasmid sequence was confirmed by automatic sequencing. Prior to transfection, cells were seeded in 48 well plates at density of 1.5 x 10^4 cells/well and incubated for 24 h to reach a cell confluence of 80–90%. […] MCF-7 cells, which endogenously express ERα receptor, were transfected with p3xERRE/ERE-luciferase plus the pRLTK Renilla luciferase control plasmid (95:5). Firefly and Renilla luciferase activities were measured using the Dual Luciferase Assay System (Promega, Madison, WI, USA), following a standard protocol using a Sirius L luminometer (Berthold Technologies, Bad Wildbad, Germany). Data were expressed as relative changes in luciferase activity and normalized to 100%.

Compound: Fc1ccc(NC(=S)c2ccc(NC(=S)c3ccc(F)cc3)cc2)cc1 [Compound 18]
- Activity in MTT assay (in words), MCF-7 (MCF-7 cells [1]; 72 h): significant activity; also recorded: strong effect
- IC50 (MCF-7 cells [1]; Homo sapiens, MCF7, 72 h, estrogen dependent breast adenocarcinoma, read-out: Cytotoxic activity IC50, MCF-7): 5.07 µM
- LDH release, MDA-MB-231 (MDA-MB-231 cells [2]): non-significant effects
- Effect in SRB assay, MCF-7 (MCF-7 cells [3]): strong effect
- Effect in SRB assay, MDA-MB-231 (MDA-MB-231 cells [4]): non-significant effects
- ER dependent transcriptional activity (human ERα receptor): capable to mediate ER dependent transcriptional activity in a similar mode than estradiol; also recorded: higher transcriptional activity at all assayed concentrations compared with estradiol
